Literature values in patent US20020042084A1, “Detection of NAALADase inhibitors” (Boehringer Ingelheim Pharma KG, priority 2000, published 2002).
Residues, ends and D or L forms follow the SMILES beside them.

Tested on: NAALADase
Conditions: substrate specificity; Serval et al. 1992

Row | hydrolysis by NAALADase | Structure (SMILES)
1 | not hydrolyzed | CC(=O)NC(CC(=O)O)C(=O)NC(CCC(=O)O)C(=O)O [D-NAAG] (Ac-Asp-Glu-OH; configuration not given here)
2 | not hydrolyzed | CC(=O)N[C@@H](CC(=O)N[C@@H](CCC(=O)O)C(=O)O)C(=O)O [β-NAAG]

Row | Structure (SMILES) | hydrolysis by NAALADase
3 | C[C@H](N)C(=O)N[C@@H](CCC(=O)O)C(=O)O [Ala-Glu] (H-Ala-Glu-OH) | not hydrolyzed
